The record followed here is ChEMBL document CHEMBL1201862, “PubChem BioAssay data set” (2004).

Some test systems named below: MCF7; SK-OV-3; IGROV-1; HL-60; DMS-114; NCI-H522; HT-29; HCT-116; M19-MEL; NCI/ADR-RES; RXF 393; NCI-H226; KM-20L2; HOP-18; XF498; PC-3; ACHN; MDA-MB-435; SNB-78; BT-549.
Holding throughout (assay): growth of human tumour cells (NCI), 48 h

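Compound exposure: 48 hours, 5 concentrations, 96-well plates. GI50: concentration for 50% inhibition of growth.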 Activity calls are given as the source filed them. Rule as the data show it: active = GI50 up to about 1.1 µM and inactive = higher.

With `O=S(=O)(CCBr)CCBr`, the GI50 with MCF7 is 4.91 µM (inactive); in the assay on SK-OV-3, 19.3 µM (inactive); with IGROV-1, 5.42 µM (inactive); in the assay with HL-60 it was 2.59 µM (inactive); in the assay with DMS-114, 2.18 µM (inactive); in the assay on NCI-H522, 1.48 µM (inactive). The GI50 in the assay on HT-29 is 5.94 µM (inactive); with HCT-116, 3.37 µM (inactive); in the assay on M19-MEL, 2.83 µM (inactive); with NCI/ADR-RES, 2.17 µM (inactive); with RXF 393 it was 2.17 µM (inactive); in the assay with NCI-H226, 19.2 µM (inactive). For the same compound, the figures for the GI50 with KM-20L2, in the assay with HOP-18 and in the assay with XF498 were 11.1 µM (inactive), 15 µM (inactive) and < 0.01 µM (active), respectively.
`CCOC(=O)c1csc(NC(=O)C(C)N2CCOCC2)n1` (configuration not stated): the GI50 in the assay on MCF7, in the assay on PC-3, with SK-OV-3, in the assay on ACHN, in the assay on IGROV-1 and with HL-60 was > 100 µM (inactive) throughout. For the same compound, the GI50 in the assay with HT-29, in the assay with NCI/ADR-RES, in the assay on RXF 393 and in the assay with MDA-MB-435 was > 100 µM (inactive) throughout.
Take `N#CCCN(CCC#N)c1ccc(/C=C2\N=C(c3cc([N+](=O)[O-])ccc3Cl)N(S(=O)(=O)c3ccccc3)C2=O)cc1`: the GI50 in the assay with SK-OV-3, in the assay with SNB-78, with ACHN, in the assay with IGROV-1, with DMS-114 and with NCI-H522 was > 100 µM (inactive) each time. Moreover, the GI50 was > 100 µM (inactive) in the assay on HCT-116; > 100 µM (inactive) in the assay on M19-MEL; > 100 µM (inactive) in the assay with RXF 393; > 100 µM (inactive) with NCI-H226; > 100 µM (inactive) in the assay on KM-20L2; 37.7 µM (inactive) in the assay with HOP-18. The GI50 in the assay on XF498 was > 100 µM (inactive).
On to `Cc1cc(C)c2c(c1)CC1(Cc3c(C)ccc(C)c3C1=O)C2=O` (configuration not stated), for which the GI50 with MCF7, in the assay with PC-3, with ACHN, in the assay on IGROV-1, with HL-60 and in the assay on NCI-H522 was > 100 µM (inactive) each time. The GI50 with BT-549, with NCI/ADR-RES, in the assay on RXF 393, in the assay on NCI-H226 and in the assay on MDA-MB-435 was > 100 µM (inactive) each time.
For `CC(=O)C(=O)NC1/C=C(C)\C=C/C(O)C/C=C(C)\C=C/C(O)CC2OC(=O)C1(C)C(=O)C2C` (configuration not stated), the GI50 in the assay on MCF7, with SK-OV-3, with SNB-78, in the assay on IGROV-1, in the assay on DMS-114 and in the assay with NCI-H522 was > 100 µM (inactive) in each case. The GI50 with HT-29, with HCT-116, in the assay on M19-MEL, in the assay with NCI/ADR-RES, in the assay on RXF 393 and in the assay on NCI-H226 was > 100 µM (inactive) in each case. Besides, the GI50 in the assay with KM-20L2 and in the assay with HOP-18 was > 100 µM (inactive) each time.
Regarding `CCN(CC)CCCOC(=O)/C=C/c1c(C)[nH]c(=O)[nH]c1=O`, the GI50 was > 625 µM (inactive) in the assay on MCF7; > 625 µM (inactive) with SK-OV-3; 542 µM (inactive) in the assay on SNB-78; > 625 µM (inactive) with IGROV-1; > 625 µM (inactive) in the assay on HL-60; > 625 µM (inactive) in the assay with DMS-114. Besides, the GI50 in the assay with NCI-H522 is > 625 µM (inactive); in the assay on HT-29 it was > 394 µM (inactive); with HCT-116, > 625 µM (inactive); in the assay with M19-MEL it was > 625 µM (inactive); with NCI/ADR-RES, > 625 µM (inactive); with RXF 393, > 99.1 µM (inactive). The GI50 in the assay on NCI-H226, in the assay with KM-20L2, in the assay with HOP-18 and with XF498 was > 625 µM (inactive) each time.
Regarding `CSc1nc(NC2OC(CO)C(O)C(O)C2O)c(N)c(=O)n1C` (configuration not stated), the GI50 in the assay on MCF7, in the assay on SK-OV-3, in the assay with SNB-78, in the assay on IGROV-1, in the assay on HL-60 and in the assay with DMS-114 was > 100 µM (inactive) each time. Besides, the GI50 with NCI-H522, with HT-29, in the assay on HCT-116, in the assay with M19-MEL, in the assay on NCI/ADR-RES and with RXF 393 was > 100 µM (inactive) throughout. For the same compound, the GI50 with NCI-H226, with KM-20L2, with HOP-18 and in the assay on XF498 was > 100 µM (inactive) throughout.
In the case of `CO/N=C1/c2sccc2[C@H](NC(=O)C(Cc2ccccc2)NC(=O)OC(C)(C)C)[C@@H]1O` (some centres not stated), the GI50 in the assay with MCF7 was > 100 µM (inactive); with PC-3, > 100 µM (inactive); in the assay with SK-OV-3, > 100 µM (inactive); in the assay with IGROV-1 it was > 100 µM (inactive); in the assay with HL-60, 85.1 µM (inactive); in the assay on BT-549, > 100 µM (inactive). The GI50 in the assay on HT-29, in the assay on HCT-116, in the assay on NCI/ADR-RES, with RXF 393, in the assay with NCI-H226 and in the assay with MDA-MB-435 was > 100 µM (inactive) throughout.
For the compound `CCC1CN2CCc3cc(OC)c(OC)cc3C2CC1CC1c2cc(OC)c(OC)cc2CCN1C(=O)C(N)Cc1ccccc1.[O-][Cl+3]([O-])([O-])O` (configuration not stated), the GI50 in the assay on SK-OV-3 is 4.65 µM (inactive); in the assay on ACHN, 2.88 µM (inactive); with HL-60, 1.59 µM (inactive); with NCI-H522, 0.385 µM (active); in the assay on HT-29, 0.486 µM (active); with HCT-116 it was 0.305 µM (active). The GI50 is 1.65 µM (inactive) with RXF 393, 1.07 µM (active) with KM-20L2 and 1.34 µM (inactive) with XF498.
Take `CNC(=S)N/N=C(/C)CCC/C(C)=N/NC(=S)NC`: the GI50 is 0.151 µM (active) in the assay on MCF7; 3.71 µM (inactive) in the assay with PC-3; > 100 µM (inactive) with SK-OV-3; > 80.7 µM (inactive) in the assay on ACHN; 3.02 µM (inactive) in the assay with IGROV-1; > 100 µM (inactive) in the assay with HL-60. The GI50 with NCI-H522 was 0.728 µM (active); in the assay on BT-549, > 100 µM (inactive); with HT-29, 0.499 µM (active); with NCI/ADR-RES it was > 100 µM (inactive); with NCI-H226, > 61.7 µM (inactive); in the assay with MDA-MB-435 it was > 71.8 µM (inactive).
Take `C=C1CC(OC)(C(OC)C(=O)N(C)[C@H]2OCO[C@H]3C2O[C@H](C[C@@H](COC)OC)C(C)(C)C3OC)O[C@H](C)[C@@H]1C` (some centres not stated): the GI50 was 5.3 µM (inactive) in the assay on MCF7; 12.2 µM (inactive) with SNB-78; 10.1 µM (inactive) in the assay with IGROV-1; 15.9 µM (inactive) in the assay on HL-60; 11.2 µM (inactive) in the assay on DMS-114; 11.5 µM (inactive) in the assay on NCI-H522. Besides, the GI50 was 5.77 µM (inactive) in the assay with HT-29; 9.44 µM (inactive) in the assay with HCT-116; 7.91 µM (inactive) in the assay with NCI/ADR-RES; 10.6 µM (inactive) with RXF 393; 6.19 µM (inactive) in the assay with NCI-H226; 13.3 µM (inactive) with KM-20L2. The results for the GI50 with HOP-18 and in the assay with XF498 were 25.5 µM (inactive) and 7.91 µM (inactive), respectively.
In the case of `C[n+]1ccc(Nc2ccc(NC(=O)c3ccc(Nc4cc[n+](C)c5ccc([N+](=O)[O-])cc45)cc3[N+](=O)[O-])cc2)cc1`, the GI50 is 60.3 µM (inactive) in the assay on SK-OV-3; 1.05 µM (active) in the assay with DMS-114; 16.6 µM (inactive) in the assay with NCI-H522; 31.1 µM (inactive) with HCT-116; 20 µM (inactive) in the assay on M19-MEL; > 85.7 µM (inactive) in the assay on NCI/ADR-RES. Moreover, the GI50 in the assay with NCI-H226 is > 56.1 µM (inactive); with HOP-18, 20.3 µM (inactive); with XF498, > 41.3 µM (inactive).
Take `COc1cc(O)c(Cc2ccccc2O)c(O)c1C(=O)CCc1ccccc1` [UVARETIN]: the GI50 with MCF7 was 5.81 µM (inactive); in the assay on SK-OV-3, 6.15 µM (inactive); with SNB-78, 7.64 µM (inactive); in the assay with IGROV-1, 6.97 µM (inactive); in the assay on HL-60, 4.43 µM (inactive); in the assay on DMS-114, 4.09 µM (inactive). Also, the GI50 with NCI-H522 was 2.3 µM (inactive); with HT-29 it was 11.9 µM (inactive); in the assay on HCT-116, 4.31 µM (inactive); in the assay with M19-MEL it was 6.07 µM (inactive); with NCI/ADR-RES, 5.66 µM (inactive); in the assay with RXF 393 it was 6.07 µM (inactive). Moreover, the GI50 in the assay with NCI-H226 is 6.62 µM (inactive); in the assay with KM-20L2, 7.35 µM (inactive); with HOP-18 it was 0.713 µM (active); with XF498, 3.21 µM (inactive).
